Measurements reported in publication PMC5447021, “TNF Lectin-Like Domain Restores Epithelial Sodium Channel Function in Frameshift Mutants Associated with Pseudohypoaldosteronism Type 1B” (Frontiers in Immunology, 2017).

Assays:
[1] = tested on: αI68fsβγ-ENaC; test: Whole-cell patch clamp, αI68fs + WT βγ; type: cell-based, human
Protocol: (§1) Point mutations of α-, β-, γ- and δ-hENaC and PHA1B frameshift mutations of α-hENaC were prepared with the QuikChange Lightning Site-Directed Mutagenesis Kit (Agilent Technologies, CA, USA). Mutagenic primers were designed individually with the Primer Design Program provided on the producer’s website or for the frameshift mutations the same base changes as reported in patients (see Table 2) were performed. Primers were ordered from Sigma-Aldrich, Vienna, Austria.
(§2) HEK-293 cells were transfected 1 day after cell seeding using X-tremeGENE HP DNA transfection reagent (Roche Diagnostics, Mannheim, Germany) according to the manufacturer’s protocol. A set of WT or mutant αβγ- or δβγ-hENaC, or α-, β-, γ-, or δ-hENaC alone was used, and the ratio of DNA to transfection reagent was 1:3. The expression was highest 48–72 h after transfection.
(§3) Electrophysiological experiments were performed as described in detail by Shabbir et al. ([16]). […] Currents were recorded with the patch clamp method in the whole-cell mode. The chamber contained 1 ml of the bath solution of the following composition (in mM): 145 NaCl, 2.7 KCl, 1.8 CaCl2, 2 MgCl2, 5.5 glucose, and 10 HEPES, adjusted to pH 7.4 with 1 M NaOH solution. Micropipettes were pulled from thin-walled borosilicate glass capillaries (Harvard Apparatus, Holliston, MA, USA) with a DMZ Zeitz Puller to obtain electrode resistances ranging from 2 to 5 MΩ. […]

[2] = tested on: αF435fs (co-expressed with βγ-ENaC); test: Whole-cell patch clamp, αF435fs + WT βγ; type: cell-based, human; conditions: read-out: EC50, solnatide, HEK-293, whole-cell, -100 mV, n = 7
Protocol: as §1, §2, §3

[3] = tested on: αL576XβD546XγD556X; test: Amiloride-sensitive current, αL576XβD546XγD556X; type: cell-based, human; conditions: lacking all carboxyl termini, preliminary experiments
[4] = tested on: αF435fs; test: Membrane abundance of αF435fs; type: cell-based, human
Protocol: Cell surface biotinylation was performed as previously described ([26]). In brief, A549 cells or transiently transfected HEK-293 cells were grown in 10 cm dishes in 37°C, 5% CO2 incubator in DMEM medium supplemented with 5% FBS. […] Medium was aspirated, and then cells were washed twice with 10 ml ice-cold phosphate-buffered saline (PBS), covered with 2.5 mg EZ-Link Sulfo-NHS-SS-Biotin (Thermo Scientific, Rockford, USA), dissolved in 10 ml ice-cold PBS, and incubated at 4°C with gentle agitation for 30 min. Fifty milliliters of quenching solution were added to cells; then cells were scraped in solution and transferred to fresh 50 ml tube. Cell suspension was centrifuged at 500 × g for 3 min. Supernatant was discarded, and 5 ml of Tris-buffered saline (TBS) was added to the cell pellet. The cell pellet was resuspended and centrifuged at 500 × g for 3 min. Supernatant was discarded and cell pellet was resuspended in lysis buffer containing protease inhibitor cocktail (10 µM pepstatin A, 10 µM phenylmethylsulfonyl fluoride, and 10 µM leupeptin) and transferred to fresh 1.5 ml centrifuge tube. Cell pellet was then homogenized on ice by ultrasonication using 1 s bursts and incubated on ice for at least 30 min. Intact cells and nuclei were pelleted by centrifugation at 10,000 × g for 2 min under cooling conditions. Pellet was then discarded and supernatant was transferred to fresh tube, incubated overnight with 0.5 ml NeutrAvidin Agarose under gentle rotation at 4°C and centrifuged at 500 × g for 5 min under cooling conditions. Supernatant was then discarded and the pellet washed twice with 200 µl lysis buffer. The biotinylated proteins were eluted with 100 µl sodium dodecyl sulfate (SDS) sample buffer (62.5 mM Tris, pH 6.8, 1% SDS, 10% glycerine, 50 mM dithiothreitol) containing 10 µM E64 at 65°C for 10 min. Sample was then centrifuged at 500 × g for 2 min. Pellet was discarded and supernatant subjected to protein electrophoresis and immunoblotting. […] Exposed films were scanned and quantified using ImageJ (NIH, MD, USA). […]

[5] = tested on: pathological conditions involving ENaC; conditions: cited from earlier work
[6] = tested on: β-ENaC; conditions: HEK-293, 5 and 10 min; cited from earlier work

With `C[C@@H]1NC(=O)CNC(=O)[C@H](CCC(=O)O)NC(=O)[C@@H]2CCCN2C(=O)[C@H]([C@@H](C)O)NC(=O)[C@H](CCC(=O)O)NC(=O)[C@H](CCCNC(=N)N)NC(=O)[C@H](CCC(N)=O)NC(=O)CNC(=O)[C@@H](N)CSSC[C@@H](C(=O)O)NC(=O)[C@H](Cc2ccc(O)cc2)NC(=O)[C@H](Cc2c[nH]c3ccccc23)NC(=O)[C@@H]2CCCN2C(=O)[C@H](CCCCN)NC(=O)[C@H](C)NC(=O)[C@H](CCC(=O)O)NC1=O` [solnatide, L-cysteine, L-cysteinylglycyl-L-glutaminyl-L-arginyl-L-α-glutamyl-L-threonyl-L-prolyl-L-α-glutamylglycyl-L-alanyl-L-α-glutamyl-L-alanyl-L-lysyl-L-prolyl-L-tryptophyl-L-tyrosyl-, cyclic (1→17)-disulfide] as the compound, how does the EC50 ([1]; read-out: EC50, solnatide, αI68fs + WT βγ, HEK-293, whole-cell, -100 mV, n = 9) read?
Its EC50 is 73.4 ± 13.4 nM.

And the “Effect of solnatide on current (words)” value ([1]; αI68fsβγ-ENaC, HEK-293)?
Its value is “induced a current increase in αI68fsβγ-ENaC”.

And the EC50 [2]?
The EC50 was 64.6 ± 8.7 nM.

And the “Effect of solnatide on current (words)” value [3]?
The value was “an even slighter, non-significant increase of current”.

And the “Membrane abundance, solnatide 5 min” value ([4]; 200 nM, 5 min, relative to WT control (=1), own control 2.37 ± 0.15, p < 0.001 vs control)?
Its value is 3.71 ± 0.20.

And the “Membrane abundance, solnatide 10 min” value ([4]; 200 nM, 10 min, relative to WT control (=1), own control 2.37 ± 0.15, p < 0.01 vs control)?
The value was 2.82 ± 0.17.

And the “Membrane abundance after solnatide” value ([4]; HEK-293)?
Its value is “the membrane abundance increasing even further following exposure to solnatide”.

And the “Efficacy in phase II clinical trials” value [5]?
The value was “already proven in pathological conditions involving ENaC in phase II clinical trials”.

What about the “Membrane abundance, solnatide” value [6] of the same compound?
Its value is “only slight”.
